For assay [1], the target named is T1, mouse TLR7 (Mus musculus, UniProt P58681).
T1 construct: host or cells: HEK293
T1 sequence (P58681 27-1050): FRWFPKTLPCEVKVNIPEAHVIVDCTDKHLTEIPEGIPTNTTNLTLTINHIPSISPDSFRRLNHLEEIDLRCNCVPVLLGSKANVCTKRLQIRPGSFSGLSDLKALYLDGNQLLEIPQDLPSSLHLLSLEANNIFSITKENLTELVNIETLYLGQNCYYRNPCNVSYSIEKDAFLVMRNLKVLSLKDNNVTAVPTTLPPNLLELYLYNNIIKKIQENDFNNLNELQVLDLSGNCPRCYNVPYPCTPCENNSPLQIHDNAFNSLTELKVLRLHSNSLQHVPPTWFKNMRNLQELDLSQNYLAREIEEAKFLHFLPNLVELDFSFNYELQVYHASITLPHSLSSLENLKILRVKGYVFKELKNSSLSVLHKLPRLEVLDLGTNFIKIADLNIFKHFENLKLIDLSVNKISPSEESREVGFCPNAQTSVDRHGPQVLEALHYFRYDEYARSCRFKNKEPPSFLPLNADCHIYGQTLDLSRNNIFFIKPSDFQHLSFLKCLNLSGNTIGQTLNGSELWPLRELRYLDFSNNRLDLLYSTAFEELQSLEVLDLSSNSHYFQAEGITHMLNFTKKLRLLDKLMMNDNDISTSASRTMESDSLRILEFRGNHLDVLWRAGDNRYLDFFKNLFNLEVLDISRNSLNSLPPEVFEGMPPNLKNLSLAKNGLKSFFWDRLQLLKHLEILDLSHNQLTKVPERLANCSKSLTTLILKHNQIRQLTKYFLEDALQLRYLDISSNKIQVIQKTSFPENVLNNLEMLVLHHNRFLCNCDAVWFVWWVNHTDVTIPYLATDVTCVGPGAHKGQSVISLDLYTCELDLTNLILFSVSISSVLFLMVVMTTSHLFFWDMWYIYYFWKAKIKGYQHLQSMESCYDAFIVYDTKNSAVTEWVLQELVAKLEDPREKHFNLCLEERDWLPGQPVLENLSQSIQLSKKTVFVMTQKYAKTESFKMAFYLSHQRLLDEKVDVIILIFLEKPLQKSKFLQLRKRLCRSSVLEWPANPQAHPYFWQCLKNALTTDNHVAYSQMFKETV
As to the kind of experiment: HEK293-mouseTLR7 SEAP reporter assay (Example 8). In kind it is cell-based. Conditions: HEK293-mTLR7 SEAP reporter cells, 24 hrs. The procedure: (§1) In this example, the in vitro activity of compounds to activate human TLR7 (or human TLR8 or mouse TLR7) pathway was evaluated on HEK293 reporter cells transfected with human TLR7 (or human TLR8 or mouse TLR7) and an inducible SEAP (secreted embryonic alkaline phosphatase) reporter gene. The SEAP reporter gene is placed under the control of the IFN-β minimal promoter fused to five NF-κB and AP-1-binding sites. Stimulation with a TLR7 agonist activates NF-κB and AP-1 which induces the production of SEAP. Levels of SEAP were determined by HEK-Blue Detection medium.
(§2) The in vitro activity of compounds on TLR7 (human and mouse) and TLR8 (human only) reporter cell lines was assessed as follows. 5-(2-methoxy-4-(piperazin-1-ylmethyl)benzyl)-N4-pentyl-5H-pyrrolo[3,2-d]pyrimidine-2,4-diamine (Compound 1) is a compound used for comparison and has the structure shown below:
(§3) HEK293-humanTLR7 (hTLR7), HEK293-mouseTLR7 (mTLR7) and HEK293-humanTLR8 (hTLR8) reporter cell lines were purchased from Invivogen and cell lines were maintained in the manufacturer's recommended culture medium with required supplemental antibiotics. On the day of assay, the cells were harvested with Accutase and counted by the Vi-CELL Cell Viability Analyzers. Cells were resuspended in HEK blue detection medium and a total of 10,000 cells were seeded in each well of a 384-well flat bottom plate. Serial dilutions of test compounds (1:4 serial dilution starting from 5 μM) were added into treatment wells and assay plates were cultured at 37° C. in a CO2 incubator for 24 hrs. The plates were then read by spectrophotometry at 640 nm. Data was fitted with non-linear regression analysis, using a log(inhibitor) vs. response-variable slope, 3-parameter fit with GraphPad Prism. There result was reported in Table 1 as EC50 (the midpoint of the curve, or concentration at which 50% of the maximum effect was observed).
(In general: In a reporter assay the amount or activity of a reporter protein is the signal.)

For assay [2], the target named is T2, human TLR8 (Homo sapiens, UniProt Q9NR97).
T2 construct: host or cells: HEK293
T2 sequence (Q9NR97 27-1041): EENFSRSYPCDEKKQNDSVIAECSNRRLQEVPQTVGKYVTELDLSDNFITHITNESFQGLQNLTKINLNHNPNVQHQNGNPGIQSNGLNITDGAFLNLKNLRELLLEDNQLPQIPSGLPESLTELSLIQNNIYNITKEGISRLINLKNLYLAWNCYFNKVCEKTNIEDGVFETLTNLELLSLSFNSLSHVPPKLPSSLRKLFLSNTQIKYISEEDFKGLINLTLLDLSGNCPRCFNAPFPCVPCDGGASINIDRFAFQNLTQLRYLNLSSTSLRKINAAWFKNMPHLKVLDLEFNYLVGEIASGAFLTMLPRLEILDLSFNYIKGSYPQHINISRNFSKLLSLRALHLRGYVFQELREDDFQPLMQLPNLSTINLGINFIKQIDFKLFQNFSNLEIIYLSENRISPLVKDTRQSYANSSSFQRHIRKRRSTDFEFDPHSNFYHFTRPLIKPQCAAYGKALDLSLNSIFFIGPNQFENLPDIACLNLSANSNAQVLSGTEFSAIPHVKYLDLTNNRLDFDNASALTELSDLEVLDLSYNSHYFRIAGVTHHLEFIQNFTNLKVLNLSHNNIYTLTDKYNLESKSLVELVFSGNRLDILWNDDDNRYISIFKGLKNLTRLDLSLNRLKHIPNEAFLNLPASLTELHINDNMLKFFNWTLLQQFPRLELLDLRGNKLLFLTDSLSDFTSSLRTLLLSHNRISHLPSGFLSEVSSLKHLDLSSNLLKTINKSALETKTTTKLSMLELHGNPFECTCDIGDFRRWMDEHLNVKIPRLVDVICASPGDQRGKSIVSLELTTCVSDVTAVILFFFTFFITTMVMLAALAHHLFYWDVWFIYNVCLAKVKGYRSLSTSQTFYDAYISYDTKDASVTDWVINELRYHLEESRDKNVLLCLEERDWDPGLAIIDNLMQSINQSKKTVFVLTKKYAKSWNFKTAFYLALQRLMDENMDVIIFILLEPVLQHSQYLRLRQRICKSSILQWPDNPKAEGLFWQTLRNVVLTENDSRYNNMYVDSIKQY
The assay is described as follows: HEK293-humanTLR8 SEAP reporter assay (Example 8). In kind it is cell-based. Conditions: HEK293-hTLR8 SEAP reporter cells, 24 hrs. The procedure:
as §1, §2, §3

SMILES strings stand for the structures.

The term EC50 denotes the concentration giving half of the maximal effect. Higher therefore signals a need for much substance.

For `CCCCCNc1nc(N)nc2ccn(Cc3ccc(CN4CCNCC4)cc3OC)c12` [Compound 1, 5-(2-methoxy-4-(piperazin-1-ylmethyl)benzyl)-N4-pentyl-5H-pyrrolo[3,2-d]pyrimidine-2,4-diamine, reference compound], the figures for the EC50 in assay [1] and in assay [2] were 4.6 nM and 338 nM, respectively.
Take `CCCCCNc1nc(N)nc2ccn(Cc3ccc(CN4CC(NC)C4)cc3OC)c12` [Compound 2, 5-(2-methoxy-4-((3-(methylamino)azetidin-1-yl)methyl)benzyl)-N4-pentyl-5H-pyrrolo[3,2-d]pyrimidine-2,4-diamine]: the values for the EC50 in assay [1] and in assay [2] were 10.2 nM and 367 nM, respectively.
Regarding `CCCCCNc1nc(N)nc2ccn(Cc3ccc(CN4CC5(CNCCO5)C4)cc3OC)c12` [Compound 10, 5-[[2-methoxy-4-(5-oxa-2,8-diazaspiro[3.5]nonan-2-ylmethyl)phenyl]methyl]-N4-pentyl-pyrrolo[3,2-d]pyrimidine-2,4-diamine], the EC50 in assay [1] is 3.7 nM; in assay [2], 342 nM.
